According to the supplement of paper PMC12513837:

Compound: CC(=O)N1CCc2c(c(N3CCCc4cc(-c5cnn(C)c5)c(C(F)F)cc43)nn2C2CCC(CN3CCN(c4ccc5c(c4)C(=O)N(C4CCC(=O)NC4=O)C5=O)CC3)CC2)C1 [CBPD-409]
Assay: AUC of viability dose-response curve (relative to vehicle, 8 doses up to 10 µM) (fraction); higher = less sensitive (more viable); extreme values may be limits of the assay
Protocol: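 PRISM multiplexed pooled barcoded cell line viability screen at the Broad Institute, 887 cancer cell lines treated with CBPD-409 (p300/CBP PROTAC degrader) at 8 concentrations in threefold dilution, top dose 10 µM. The read-out is the area under the dose-response curve of relative viability versus vehicle (n=3). AUC < 0.3 is called strongly sensitive and AUC > 0.8 resistant.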

| Test System | AUC of viability dose-response curve |
| --- | --- |
| SNU245_BILIARY_TRACT | 0.719 |
| SNU308_BILIARY_TRACT | 0.95 |
| SNU398_LIVER | 0.849 |
| SNU407_LARGE_INTESTINE | 0.502 |
| SNU410_PANCREAS | 1 |
| SNU423_LIVER | 0.751 |
| SNU449_LIVER | 0.947 |
| SNU466_CENTRAL_NERVOUS_SYSTEM | 0.909 |
| SNU478_BILIARY_TRACT | 0.861 |
| SNU489_CENTRAL_NERVOUS_SYSTEM | 1 |
| SNU601_STOMACH | 0.563 |
| SNU638_STOMACH | 0.48 |
| SNU668_STOMACH | 0.999 |
| SNU685_ENDOMETRIUM | 1 |
| SNU719_STOMACH | 0.969 |
| SNU761_LIVER | 0.855 |
| SNU840_OVARY | 1 |
| SNU869_BILIARY_TRACT | 1 |
| SNU886_LIVER | 0.853 |
| SNU899_UPPER_AERODIGESTIVE_TRACT | 0.668 |
| SNU1041_UPPER_AERODIGESTIVE_TRACT | 0.703 |
| SNU1066_UPPER_AERODIGESTIVE_TRACT | 1 |
| SNU1076_UPPER_AERODIGESTIVE_TRACT | 0.845 |

| Test System | AUC of viability dose-response curve |
| --- | --- |
| SNU1077_ENDOMETRIUM | 0.846 |
| SNU1079_BILIARY_TRACT | 0.648 |
| SNU1105_CENTRAL_NERVOUS_SYSTEM | 0.577 |
| SNU1196_BILIARY_TRACT | 1 |
| SNU1214_UPPER_AERODIGESTIVE_TRACT | 0.739 |
| SNU1544_LARGE_INTESTINE | 0.806 |
| SNU2372_BREAST | 1 |
| SNUC2A_LARGE_INTESTINE | 0.514 |
| SNUC4_LARGE_INTESTINE | 0.595 |
| SQ1_LUNG | 1 |
| SSP25_BILIARY_TRACT | 0.801 |
| STM9101_SOFT_TISSUE | 1 |
| SUDHL1_HAEMATOPOIETIC_AND_LYMPHOID_TISSUE | 0.75 |
| SUDHL4_HAEMATOPOIETIC_AND_LYMPHOID_TISSUE | 0.958 |
| SUDHL8_HAEMATOPOIETIC_AND_LYMPHOID_TISSUE | 0.726 |
| SUIT2_PANCREAS | 1 |
| SUM149PT_BREAST | 0.789 |
| SUM159PT_BREAST | 0.732 |
| SUPB15_HAEMATOPOIETIC_AND_LYMPHOID_TISSUE | 0.185 |
| SUPT11_HAEMATOPOIETIC_AND_LYMPHOID_TISSUE | 1 |
| SUSA_TESTIS | 0.578 |
| SW13_ADRENAL_CORTEX | 0.602 |
| SW156_KIDNEY | 0.884 |

| Test System | AUC of viability dose-response curve |
| --- | --- |
| SW480_LARGE_INTESTINE | 1 |
| SW579_THYROID | 0.197 |
| SW620_LARGE_INTESTINE | 0.559 |
| SW626_LARGE_INTESTINE | 0.387 |
| SW756_CERVIX | 0.437 |
| SW780_URINARY_TRACT | 1 |
| SW837_LARGE_INTESTINE | 0.72 |
| SW900_LUNG | 0.853 |
| SW948_LARGE_INTESTINE | 0.577 |
| SW954_CERVIX | 0.702 |
| SW1088_CENTRAL_NERVOUS_SYSTEM | 1 |
| SW1116_LARGE_INTESTINE | 1 |
| SW1271_LUNG | 0.564 |
| SW1353_BONE | 1 |
| SW1463_LARGE_INTESTINE | 1 |
| SW1573_LUNG | 1 |
| SW1710_URINARY_TRACT | 0.8 |
| SW1783_CENTRAL_NERVOUS_SYSTEM | 0.884 |
| SW1990_PANCREAS | 1 |
| T3M5_THYROID | 0.776 |
| T3M10_LUNG | 0.64 |
| T24_URINARY_TRACT | 1 |
| T47D_BREAST | 0.593 |

| Test System | AUC of viability dose-response curve |
| --- | --- |
| T84_LARGE_INTESTINE | 1 |
| T98G_CENTRAL_NERVOUS_SYSTEM | 0.8 |
| TALL1_HAEMATOPOIETIC_AND_LYMPHOID_TISSUE | 0.762 |
| TANOUE_HAEMATOPOIETIC_AND_LYMPHOID_TISSUE | 1 |
| TASK1_CENTRAL_NERVOUS_SYSTEM | 0.342 |
| TC32_BONE | 0.859 |
| TC106_BONE | 1 |
| TC205_BONE | 0.543 |
| TCCPAN2_PANCREAS | 0.875 |
| TCCSUP_URINARY_TRACT | 1 |
| TE1_OESOPHAGUS | 0.884 |
| TE5_OESOPHAGUS | 0.998 |
| TE6_OESOPHAGUS | 0.914 |
| TE8_OESOPHAGUS | 0.646 |
| TE9_OESOPHAGUS | 1 |
| TE10_OESOPHAGUS | 0.501 |
| TE11_OESOPHAGUS | 0.986 |
| TE14_OESOPHAGUS | 0.86 |
| TE15_OESOPHAGUS | 0.364 |
| TE617T_SOFT_TISSUE | 0.851 |
| TEN_ENDOMETRIUM | 0.726 |
| TF1_HAEMATOPOIETIC_AND_LYMPHOID_TISSUE | 0.757 |
